Data published in patent publication US7632863B2, “3,4,5,4′-tetramethoxyl-α,β-diphenylethane-3′-O-sodium sulphate and its use” (The Jian Cell Biomedical Research Co., Ltd., priority 2007, dated 2009).
Like-named read-outs stand apart in the source and are kept apart here.

Tests used:
[1] = Water solubility; format: physicochemical
[2] = tested on: KunMing (KM) mice; assay: LD50 determination, tail vein injection; format: in vivo; conditions: for Death rate in total % Total / Death rate in total % ♀ / Death rate in total % ♂ / Deaths days 1 ♀ / Deaths days 1 ♂ / Deaths days 2 ♀ / Deaths days 2 ♂ / Deaths days 3 ♀ / Deaths days 3 ♂ / Deaths days 4 ♀ / Deaths days 4 ♂ / Deaths hours 0-4 ♀ / Deaths hours 0-4 ♂: tail vein injection
Description: (§1) 1. Experimental animal: KunMing (KM) mice, provided by Shanghai Slac Laboratory Animal Co., Ltd., half and half of female and male, 6 groups, ten in each group, marked by bitter acid.
(§2) 2. […] Preparing medical solution of equal ratio: dissolving with 0.9% NaCl to prepare the medical solution with the concentration of 336 mg/7 ml, 316.96 mg/7 ml, 299.32 mg/7 ml, 282.52 mg/7 ml, 266.84 mg/7 ml, 252 mg/7 ml.
(§3) 3. Dosage for administration: with 0.5 ml/20 g bottom up.
(§4) 4. Means of administration: tail vein injection
(§5) 5. Experimental method: observing at 0.25 h, 0.5 h, 1 h, 2 h, 4 h, 24 h respectively after administration; then observing once every day 14 days; putting the mice still alive to death on the 15th day and recording the death rate.

[3] = LD50 determination, tail vein injection; format: in vivo, mice; conditions: both sexes, KunMing (KM), mouse, in vivo, intravenous, KM mice, tail vein injection
Description: as §1, §2, §3, §4, §5

[4] = tested on: S180 sarcoma; conditions: for 0 d weight / 11 d weight without tumor / Tumor inhibiting rate % / Tumor weight: i.v., S180 sarcoma-bearing mice
From the text: (1) Sample: 3,4,5,4′-tetramethoxyl-α,β-diphenylethane-3′-O-sodium sulphate (AS) provided by Zhejiang Cell Biomedical Research Co., Ltd., and prepared by the process in Example One. Dissolved by physiological saline for the concentration needed.
(2) Control product: Cyclophosphamide for injection (CTX), Jiangsu Hengrui Pharmaceutical Inc. Co. Batch No.: 04123021 Dissolved by physiological saline for preparation.
(1) KM mouse bearing S180 sarcoma.
(2) 50 KM mice, female, weighting 18-22 g, provided by Zhejing College of Traditional Chinese Medicine.
(1) Drawing ascites under aseptic condition from mouse bearing S180 sarcoma, diluting with physiologic saline 1:3, giving subcutaneous inoculation in the armpit of the right forelimb of the KM mice with 0.2 ml each; dividing the mice into 5 groups randomly the next day, 10 in each group.
(2) Administering drug to the mice by weight the third day of inoculation, intravenous administration 0.5 ml/20 g […], by weight, and putting them to death on the 11th day after inoculation, weighing the tumor and calculating the rate of tumor inhibition.
(3) dosage (mg/kg/d) and means of administration:
AS: 50 mg/kg, tail vein injection
AS: 100 mg/kg, tail vein injection
AS: 200 mg/kg, tail vein injection
CTX: 30 mg/kg, tail vein injection
Setting up another blank control group, tail vein injection of 0.9% NaCl 0.5 ml.
(4) Judging the result with the following formula: […]

COc1ccc(CCc2cc(OC)c(OC)c(OC)c2)cc1OS(=O)(=O)[O-].[Na+] [AS, 3,4,5,4′-tetramethoxyl-α,β-diphenylethane-3′-O-sodium sulphate]
water solubility (in words) [1]: good water solubility | Death rate in total % Total ([2]; 900 mg/kg): 0% | Death rate in total % ♀ ([2]; 900 mg/kg): 0% | Death rate in total % ♂ ([2]; 900 mg/kg): 0% | Deaths days 1 ♀ ([2]; 900 mg/kg): 0 | Deaths days 1 ♂ ([2]; 900 mg/kg): 0 | Deaths days 2 ♀ ([2]; 900 mg/kg): 0 | Deaths days 2 ♂ ([2]; 900 mg/kg): 0 | Deaths days 3 ♀ ([2]; 900 mg/kg): 0 | Deaths days 3 ♂ ([2]; 900 mg/kg): 0 | Deaths days 4 ♀ ([2]; 900 mg/kg): 0 | Deaths days 4 ♂ ([2]; 900 mg/kg): 0 | Deaths hours 0-4 ♀ ([2]; 900 mg/kg): 0 | Deaths hours 0-4 ♂ ([2]; 900 mg/kg): 0 | Death rate in total % Total ([2]; 953 mg/kg): 0% | Death rate in total % ♀ ([2]; 953 mg/kg): 0% | Death rate in total % ♂ ([2]; 953 mg/kg): 0% | Deaths days 1 ♀ ([2]; 953 mg/kg): 0 | Deaths days 1 ♂ ([2]; 953 mg/kg): 0 | Deaths days 2 ♀ ([2]; 953 mg/kg): 0 | Deaths days 2 ♂ ([2]; 953 mg/kg): 0 | Deaths days 3 ♀ ([2]; 953 mg/kg): 0 | Deaths days 3 ♂ ([2]; 953 mg/kg): 0 | Deaths days 4 ♀ ([2]; 953 mg/kg): 0 | Deaths days 4 ♂ ([2]; 953 mg/kg): 0 | Deaths hours 0-4 ♀ ([2]; 953 mg/kg): 0 | Deaths hours 0-4 ♂ ([2]; 953 mg/kg): 0 | Death rate in total % Total ([2]; 1009 mg/kg): 40% | Death rate in total % ♀ ([2]; 1009 mg/kg): 20% | Death rate in total % ♂ ([2]; 1009 mg/kg): 60% | Deaths days 1 ♀ ([2]; 1009 mg/kg): 0 | Deaths days 1 ♂ ([2]; 1009 mg/kg): 0 | Deaths days 2 ♀ ([2]; 1009 mg/kg): 0 | Deaths days 2 ♂ ([2]; 1009 mg/kg): 0 | Deaths days 3 ♀ ([2]; 1009 mg/kg): 0 | Deaths days 3 ♂ ([2]; 1009 mg/kg): 0 | Deaths days 4 ♀ ([2]; 1009 mg/kg): 0 | Deaths days 4 ♂ ([2]; 1009 mg/kg): 0 | Deaths hours 0-4 ♀ ([2]; 1009 mg/kg): 1 | Deaths hours 0-4 ♂ ([2]; 1009 mg/kg): 3 | Death rate in total % Total ([2]; 1069 mg/kg): 80% | Death rate in total % ♀ ([2]; 1069 mg/kg): 80% | Death rate in total % ♂ ([2]; 1069 mg/kg): 80% | Deaths days 1 ♀ ([2]; 1069 mg/kg): 0 | Deaths days 1 ♂ ([2]; 1069 mg/kg): 0 | Deaths days 2 ♀ ([2]; 1069 mg/kg): 0 | Deaths days 2 ♂ ([2]; 1069 mg/kg): 0 | Deaths days 3 ♀ ([2]; 1069 mg/kg): 0 | Deaths days 3 ♂ ([2]; 1069 mg/kg): 0 | Deaths days 4 ♀ ([2]; 1069 mg/kg): 0 | Deaths days 4 ♂ ([2]; 1069 mg/kg): 0 | Deaths hours 0-4 ♀ ([2]; 1069 mg/kg): 4 | Deaths hours 0-4 ♂ ([2]; 1069 mg/kg): 4 | Death rate in total % Total ([2]; 1132 mg/kg): 60% | Death rate in total % ♀ ([2]; 1132 mg/kg): 60% | Death rate in total % ♂ ([2]; 1132 mg/kg): 60% | Deaths days 1 ♀ ([2]; 1132 mg/kg): 0 | Deaths days 1 ♂ ([2]; 1132 mg/kg): 0 | Deaths days 2 ♀ ([2]; 1132 mg/kg): 0 | Deaths days 2 ♂ ([2]; 1132 mg/kg): 0 | Deaths days 3 ♀ ([2]; 1132 mg/kg): 0 | Deaths days 3 ♂ ([2]; 1132 mg/kg): 0 | Deaths days 4 ♀ ([2]; 1132 mg/kg): 0 | Deaths days 4 ♂ ([2]; 1132 mg/kg): 0 | Deaths hours 0-4 ♀ ([2]; 1132 mg/kg): 3 | Deaths hours 0-4 ♂ ([2]; 1132 mg/kg): 3 | Death rate in total % Total ([2]; 1200 mg/kg): 70% | Death rate in total % ♀ ([2]; 1200 mg/kg): 40% | Death rate in total % ♂ ([2]; 1200 mg/kg): 100% | Deaths days 1 ♀ ([2]; 1200 mg/kg): 0 | Deaths days 1 ♂ ([2]; 1200 mg/kg): 0 | Deaths days 2 ♀ ([2]; 1200 mg/kg): 0 | Deaths days 2 ♂ ([2]; 1200 mg/kg): 0 | Deaths days 3 ♀ ([2]; 1200 mg/kg): 0 | Deaths days 3 ♂ ([2]; 1200 mg/kg): 0 | Deaths days 4 ♀ ([2]; 1200 mg/kg): 0 | Deaths days 4 ♂ ([2]; 1200 mg/kg): 0 | Deaths hours 0-4 ♀ ([2]; 1200 mg/kg): 2 | Deaths hours 0-4 ♂ ([2]; 1200 mg/kg): 5 | toxicity (in words) ([2]; conclusion from LD50): very low | LD50 at 14 days ([3]; observed 14 days, read-out: LD50): 1080 mg/kg | LD50 at 14 days ([3]; read-out: LD50 (Feiller correction) 95% confidence interval): 1030 to 1130 mg/kg | 0 d weight ([4]; Dosage 50 mg/kg): 21.06 ± 0.82 g | 11 d weight without tumor ([4]; Dosage 50 mg/kg): 25.89 ± 3.32 g | Tumor inhibiting rate % ([4]; Dosage 50 mg/kg): 44% | Tumor weight ([4]; Dosage 50 mg/kg): 1.63 ± 1.43 g | 0 d weight ([4]; Dosage 100 mg/kg): 20.46 ± 1.03 g | 11 d weight without tumor ([4]; Dosage 100 mg/kg): 28.42 ± 4.13 g | Tumor inhibiting rate % ([4]; Dosage 100 mg/kg): 29% | Tumor weight ([4]; Dosage 100 mg/kg): 2.07 ± 1.03 g | 0 d weight ([4]; Dosage 200 mg/kg): 20.45 ± 0.86 g | 11 d weight without tumor ([4]; Dosage 200 mg/kg): 27.10 ± 2.44 g | Tumor inhibiting rate % ([4]; Dosage 200 mg/kg): 54% | Tumor weight ([4]; Dosage 200 mg/kg): 1.34 ± 0.53 g | inhibitory effect on S180 tumors (in words) ([4]; result analysis): excellent inhibitory effect
